{"source": "ChEMBL document CHEMBL4342436", "about": "“Artemisia: a promising plant for the treatment of cancer” (Bioorg Med Chem, 2020)", "key": {"[1]": {"system": "HCT-8", "experiment": "Cytotoxicity against human HCT8 cells after 72 hrs by MTT assay", "type": "functional, cell-based", "conditions": "HCT-8, 72 h"}, "[2]": {"system": "A549", "experiment": "Cytotoxicity against human A549 cells after 72 hrs by MTT assay", "type": "functional, cell-based", "conditions": "A549, 72 h"}, "[3]": {"system": "BGC-823", "experiment": "Cytotoxicity against human BGC823 cells after 72 hrs by MTT assay", "type": "functional, cell-based", "conditions": "BGC-823, 72 h"}, "[4]": {"experiment": "Cytotoxicity against mouse Meth-A cells by MTT assay", "type": "functional", "conditions": "read-out: ED50 (the source's name)"}, "[5]": {"system": "B16-F10", "experiment": "Cytotoxicity against mouse B16F10 cells assessed as reduction in cell viability incubated for 24 hrs by MTT assay", "type": "functional, cell-based", "conditions": "B16-F10, 24 h"}, "[6]": {"system": "MCF7", "experiment": "Antiproliferative activity against human MCF7 cells assessed as reduction in cell viability after 48 hrs by MTT assay", "type": "functional, cell-based", "conditions": "MCF7, 48 h"}, "[7]": {"system": "MIA PaCa-2", "experiment": "Antiproliferative activity against human MIAPaCa2 cells assessed as reduction in cell viability after 48 hrs by MTT assay", "type": "functional, cell-based", "conditions": "MIA PaCa-2, 48 h"}, "[8]": {"system": "BHY", "experiment": "Antiproliferative activity against human BHY cells assessed as reduction in cell viability after 48 hrs by MTT assay", "type": "functional, cell-based"}, "[9]": {"system": "COLO 205", "experiment": "Antiproliferative activity against human COLO205 cells assessed as reduction in cell viability after 48 hrs by MTT assay", "type": "functional, cell-based", "conditions": "COLO 205, 48 h"}, "[10]": {"system": "A-431", "experiment": "Cytotoxicity against human A431 cells assessed as reduction in cell viability incubated for 24 hrs by MTT assay", "type": "functional, cell-based", "conditions": "A-431, 24 h"}, "[11]": {"system": "A549", "experiment": "Antiproliferative activity against human A549 cells assessed as reduction in cell viability after 48 hrs by MTT assay", "type": "functional, cell-based", "conditions": "A549, 48 h"}, "[12]": {"system": "K562", "experiment": "(§1) Cytotoxicity against human K562 cells", "type": "functional", "conditions": "read-out: ED50 (the source's name)"}, "[13]": {"system": "CCRF-CEM", "experiment": "Cytotoxicity against human CCRF-CEM cells", "type": "functional", "conditions": "read-out: ED50 (the source's name)"}, "[14]": {"system": "HL-60(TB)", "experiment": "Cytotoxicity against human HL-60(TB) cells", "type": "functional", "conditions": "read-out: ED50 (the source's name)"}, "[15]": {"system": "MCF-10A", "experiment": "Induction of apoptosis n human MCF10A transformed with RAS gene at 100 uM by flow cytometric analysis relative to control", "type": "functional"}, "[16]": {"system": "THP-1", "experiment": "Cytotoxicity against human THP1 cells after 48 hrs by trypan blue dye exclusion counting method", "type": "functional, cell-based", "conditions": "THP-1, 48 h"}, "[17]": {"system": "HCT-8", "experiment": "Cytotoxicity against human HCT8 cells", "type": "functional, cell-based"}, "[18]": {"system": "A549", "experiment": "Cytotoxicity against human A549 cells", "type": "functional, cell-based"}, "[19]": {"system": "BGC-823", "experiment": "Cytotoxicity against human BGC823 cells", "type": "functional, cell-based"}, "[20]": {"system": "MIA PaCa-2", "experiment": "Cytotoxicity against human MIAPaCa2 cells after 24 hrs by MTT assay", "type": "functional, cell-based", "conditions": "MIA PaCa-2, 24 h"}, "[21]": {"system": "HT-29", "experiment": "Cytotoxicity against human HT-29 cells after 24 hrs by MTT assay", "type": "functional, cell-based", "conditions": "HT-29, 24 h"}, "[22]": {"system": "HEp-2", "experiment": "Cytotoxicity against human Hep2 cells after 24 hrs by MTT assay", "type": "functional, cell-based", "conditions": "HEp-2, 24 h"}, "[23]": {"system": "HL-60", "experiment": "Antiproliferative activity against human HL60 cells assessed as reduction in cell viability after 3 days by XTT assay", "type": "functional, cell-based", "conditions": "HL-60, 72 h"}, "[24]": {"system": "A549", "experiment": "Cytotoxicity against human A549 cells after 24 hrs by MTT assay", "type": "functional, cell-based", "conditions": "A549, 24 h"}, "[25]": {"system": "K562", "experiment": "as §1", "type": "functional, cell-based"}, "[26]": {"system": "HL-60", "experiment": "Cytotoxicity against human HL60 cells", "type": "functional, cell-based"}, "[27]": {"experiment": "Cytotoxicity against human 95-D cells by SRB assay", "type": "functional, cell-based"}}, "note": "pIC50: −log10 of the molar value.", "data": [{"compound": "CC#CC#CC1=C(CCCCO)C(O)C(O)C1=O", "note": "(configuration not stated)", "values": [{"measurement": "pIC50", "setting": "[1]", "result": 5.34}, {"measurement": "pIC50", "setting": "[2]", "result": 5.12}, {"measurement": "pIC50", "setting": "[3]", "result": 5.96}]}, {"compound": "CC(C)C(=O)CC[C@@H](C)[C@H]1CC[C@@]2(C)[C@@H]3CC[C@H]4C(C)(C)[C@@H](O)CC[C@@]45C[C@@]35CC[C@]12C", "values": [{"measurement": "EC50", "setting": "[4]", "result": "4 to 10", "unit": "µg/mL"}]}, {"compound": "C=C1C(=O)O[C@H]2[C@H]1CCC(C)=C1C[C@H]3O[C@@]3(C)[C@@H]12", "note": "[LUDARTIN]", "values": [{"measurement": "pIC50", "setting": "[5]", "result": 5.18}, {"measurement": "pIC50", "setting": "[6]", "result": "4.06 to 4.60"}, {"measurement": "pIC50", "setting": "[7]", "result": "4.06 to 4.60"}, {"measurement": "pIC50", "setting": "[8]", "result": "4.06 to 4.60"}, {"measurement": "pIC50", "setting": "[9]", "result": "4.06 to 4.60"}, {"measurement": "pIC50", "setting": "[10]", "result": 4.72}, {"measurement": "pIC50", "setting": "[11]", "result": "4.06 to 4.60"}]}, {"compound": "C=C1C(=O)O[C@@H]2O[C@@]3(C)CC[C@H]4[C@H](C)CC[C@@H]1[C@@]24O3", "note": "[DEOXYARTEMISITENE]", "values": [{"measurement": "EC50", "setting": "[12]", "result": 0.94, "unit": "µg/mL"}, {"measurement": "EC50", "setting": "[13]", "result": 0.92, "unit": "µg/mL"}, {"measurement": "EC50", "setting": "[14]", "result": 0.62, "unit": "µg/mL"}]}, {"compound": "COc1cc(-c2cc(=O)c3c(O)c(OC)c(O)cc3o2)ccc1O", "note": "[JACEOSIDINE]", "values": [{"measurement": "Activity", "setting": "[15]", "result": 48.72, "unit": "%"}, {"measurement": "pIC50", "setting": "[16]", "result": 4.15}]}, {"compound": "CC(=O)OCC1=C2CC[C@@]3(C)[C@H](O)CC(OC(C)=O)=C(C)[C@@H]3[C@H]2OC1=O", "values": [{"measurement": "pIC50", "setting": "[17]", "result": 5.42}, {"measurement": "pIC50", "setting": "[18]", "result": 5.26}, {"measurement": "pIC50", "setting": "[19]", "result": 5.57}]}, {"compound": "CC#CC#CC(=O)c1ccccc1", "values": [{"measurement": "pIC50", "setting": "[20]", "result": "5.21 to 6.22"}, {"measurement": "pIC50", "setting": "[21]", "result": "5.21 to 6.22"}, {"measurement": "pIC50", "setting": "[22]", "result": "5.21 to 6.22"}, {"measurement": "IC50", "setting": "[23]", "result": "1.1 to 40.7", "unit": "µg/mL"}, {"measurement": "pIC50", "setting": "[24]", "result": "5.21 to 6.22"}]}, {"compound": "C=C1CCC(O)C2(C)CCC3C(C)C(=O)OC3C12O", "note": "(configuration not stated)", "values": [{"measurement": "pIC50", "setting": "[25]", "result": 4.65}, {"measurement": "pIC50", "setting": "[26]", "result": 4.15}, {"measurement": "pIC50", "setting": "[27]", "result": 4.95}]}]}
